Measured values reported in patent US20250339399A1, “SUPRAMOLECULAR SELF-ASSEMBLY SYSTEM” (Beijing Creatron Institute of Pharmaceutical Research Co., …, priority 2022, published 2025).
Structures can show the parent of a compound that is named as a salt. Where two headings read alike, the source gives them in different places.

Experiments:
[1] = human use, cited from earlier work
[2] = Guest molecule concentration after incubation in initial medium without polymer (Comparative Example 1); assay type: physicochemical; settings: 37° C., pH 6.8 phosphate buffer
In short: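 Dissolved guest content measured by HPLC of centrifuged supernatants (37° C., 13000 rpm, 5 min) sampled at 0.5 h, 3 h and 6 h. Incubation was polymer-free at 37° C.±0.5° C. in buffers of pH 2.0-7.4; nominal loading was set by maximum clinical dose.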

[3] = cited from earlier work
[4] = cited from earlier work; for solubility value given in Table 1 (basic information of natural flavonoids): parent flavonoid of the class
[5] = Binary supramolecular self-assembly systems of polymer and target: guest concentration over incubation time (Comparative Example 2); assay type: physicochemical; settings: for Concentration of guest molecule in solution / Times that of the initial medium: 6 h
Method: Experiments were conducted according to the steps in Comparative Example 1, and quantitative analysis was carried out using the analytical method for each target to investigate the regulation ability […] stacking.

[6] = natural flavonoids (chalcone, dihydrochalcone class), Table 1 basic information

Which “Acceptable daily intake (ADI)” value ([1]; bw: body weight) does the source give for `C=C1C[C@@]23CC[C@H]4[C@@](C)(CCC[C@@]4(C)C(=O)O[C@@H]4O[C@H](CO)[C@@H](O)[C@H](O)[C@H]4O)[C@@H]2CC[C@]1(O[C@@H]1O[C@H](CO)[C@@H](O)[C@H](O[C@@H]2O[C@H](CO)[C@@H](O)[C@H](O)[C@H]2O)[C@H]1O[C@@H]1O[C@@H](C)[C@H](O)[C@@H](O)[C@H]1O)C3` [compound 308, Rebaudioside C] here?
The value was 6 mg/kg bw/day.

Which “Acceptable daily intake (ADI)” value [1] does the source give for `O=C(O[C@@H]1Cc2c(O)cc(O)cc2O[C@@H]1c1cc(O)c(O)c(O)c1)c1cc(O)c(O)c(O)c1` [compound 303, (−)−Epigallocatechin 3-gallate] here?
Its value is 135-270 mg/person/ day mg/person/day.

For Isoquercitrin [compound 304], which “Acceptable daily intake (ADI)” value ([1]; bw: body weight) is on record?
The value was 3.3 mg/kg bw/day.

For `C=C1C[C@@]23CC[C@H]4[C@@](C)(CCC[C@@]4(C)C(=O)O)[C@@H]2CC[C@]1(O[C@@H]1O[C@H](CO)[C@@H](O)[C@H](O[C@@H]2O[C@H](CO)[C@@H](O)[C@H](O)[C@H]2O)[C@H]1O[C@@H]1O[C@H](CO)[C@@H](O)[C@H](O)[C@H]1O)C3` [compound 307, Rebaudioside B], which “Acceptable daily intake (ADI)” value ([1]; bw: body weight) is on record?
The value was 6 mg/kg bw/day.

Which “Acceptable daily intake (ADI)” value ([1]; bw: body weight) does the source give for “Neohesperidin dihydrochalcone [compound 310]” here?
The value was 3-5 mg/kg bw/day.

With `CC1(C)[C@@H](O[C@H]2O[C@H](C(=O)O)[C@@H](O)[C@H](O)[C@H]2O[C@@H]2O[C@H](C(=O)O)[C@@H](O)[C@H](O)[C@H]2O)CC[C@]2(C)[C@H]3C(=O)C=C4[C@@H]5C[C@@](C)(C(=O)O)CC[C@]5(C)CC[C@@]4(C)[C@]3(C)CC[C@@H]12` [compound 314, Glycyrrhizic acid and its ammonium salt] as the compound, how does the “Acceptable daily intake (ADI)” value ([1]; bw: body weight) read?
The value was 2 mg/kg bw/day.

With `C=C1C[C@@]23CC[C@H]4[C@@](C)(CCC[C@@]4(C)C(=O)O[C@@H]4O[C@H](CO)[C@@H](O)[C@H](O)[C@H]4O)[C@@H]2CC[C@]1(O[C@@H]1O[C@H](CO)[C@@H](O)[C@H](O)[C@H]1O[C@@H]1O[C@H](CO)[C@@H](O)[C@H](O)[C@H]1O)C3` [compound 315, Stevioside] as the compound, how does the “Acceptable daily intake (ADI)” value ([1]; bw: body weight) read?
The value was 4 mg/kg bw/day.

With `C=C1C[C@@]23CC[C@H]4[C@@](C)(CCC[C@@]4(C)C(=O)O[C@@H]4O[C@H](CO)[C@@H](O)[C@H](O)[C@H]4O[C@@H]4O[C@H](CO)[C@@H](O)[C@H](O)[C@H]4O)[C@@H]2CC[C@]1(O[C@@H]1O[C@H](CO)[C@@H](O)[C@H](O[C@@H]2O[C@H](CO)[C@@H](O)[C@H](O)[C@H]2O)[C@H]1OC1O[C@H](CO)[C@@H](O)[C@H](O)[C@H]1O)C3` (some centres unmarked) [compound 320, Rebaudioside D] as the compound, how does the “Acceptable daily intake (ADI)” value ([1]; bw: body weight) read?
Its value is 3-5 mg/kg bw/day.

Which “Acceptable daily intake (ADI)” value ([1]; bw: body weight) does the source give for Myricitrin [compound 306] here?
The value was 14 mg/kg bw/day.

Which “Acceptable daily intake (ADI)” value ([1]; bw: body weight) does the source give for `O=C(OC[C@H]1O[C@@H](OC(=O)c2cc(O)c(O)c(OC(=O)c3cc(O)c(O)c(O)c3)c2)[C@H](OC(=O)c2cc(O)c(O)c(OC(=O)c3cc(O)c(O)c(O)c3)c2)[C@@H](OC(=O)c2cc(O)c(O)c(OC(=O)c3cc(O)c(O)c(O)c3)c2)[C@@H]1OC(=O)c1cc(O)c(O)c(OC(=O)c2cc(O)c(O)c(O)c2)c1)c1cc(O)c(O)c(OC(=O)c2cc(O)c(O)c(O)c2)c1` [compound 316, Tannic acid] here?
Its value is 15 mg/kg bw/day.

For `O=C1C[C@@H](c2ccc(O)cc2)Oc2cc(O)cc(O)c21` [Naringenin], which “Concentration of guest molecule measured after different incubated time” value (“Concentration … after different incubated time” below) ([2]; 0.5 h) is on record?
The value was 169.9 µg/mL.

And the “Concentration … after different incubated time” value ([2]; 3 h)?
Its value is 126.7 µg/mL.

What about the “Concentration … after different incubated time” value ([2]; 6 h) of the same compound?
The value was 129.1 µg/mL.

And the LogP [3]?
The LogP was “LogP 2.71”.

And the “solubility value given in Table 1 (basic information of natural flavonoids)” value (“solubility value given” below) ([4]; value follows the class name)?
The value was “Naringenin (CAS 480-41) derivatives, EUF-0.58 mg/ml”.

What about the “Concentration of the target in the solution measured after different incubation time” value (“Concentration … after different incubation time” below) ([5]; binary system with 0.5% polymer 101, incubation 0.5 h) of the same compound?
Its value is 412.1 µg/mL.

And the “Concentration … after different incubation time” value ([5]; binary system with 0.5% polymer 101, incubation 3 h)?
The value was 214.9 µg/mL.

What about the “Concentration … after different incubation time” value ([5]; binary system with 0.5% polymer 101, incubation 6 h) of the same compound?
Its value is 126.4 µg/mL.

And the “Concentration … after different incubation time” value ([5]; binary system with 0.5% polymer 102, incubation 0.5 h)?
The value was 456.4 µg/mL.

And the “Concentration … after different incubation time” value ([5]; binary system with 0.5% polymer 102, incubation 3 h)?
The value was 389.1 µg/mL.

And the “Concentration … after different incubation time” value ([5]; binary system with 0.5% polymer 102, incubation 6 h)?
The value was 383.3 µg/mL.

What about the “Concentration … after different incubation time” value ([5]; binary system with 0.5% polymer 103, incubation 0.5 h) of the same compound?
The value was 230.7 µg/mL.

And the “Concentration … after different incubation time” value ([5]; binary system with 0.5% polymer 103, incubation 3 h)?
The value was 231.0 µg/mL.

And the “Concentration … after different incubation time” value ([5]; binary system with 0.5% polymer 103, incubation 6 h)?
The value was 233.5 µg/mL.

What about the “Concentration … after different incubation time” value ([5]; binary system with 0.5% polymer 106, incubation 0.5 h) of the same compound?
Its value is 469.5 µg/mL.

What about the “Concentration … after different incubation time” value ([5]; binary system with 0.5% polymer 106, incubation 3 h) of the same compound?
Its value is 462.5 µg/mL.

What about the “Concentration … after different incubation time” value ([5]; binary system with 0.5% polymer 106, incubation 6 h) of the same compound?
Its value is 478.8 µg/mL.

What about the “Concentration … after different incubation time” value ([5]; binary system with 0.5% polymer 107, incubation 0.5 h) of the same compound?
The value was 127.5 µg/mL.

And the “Concentration … after different incubation time” value ([5]; binary system with 0.5% polymer 107, incubation 3 h)?
The value was 130.9 µg/mL.

And the “Concentration … after different incubation time” value ([5]; binary system with 0.5% polymer 107, incubation 6 h)?
Its value is 139.1 µg/mL.

What about the “Concentration … after different incubation time” value ([5]; binary system with 0.5% polymer 110, incubation 0.5 h) of the same compound?
Its value is 112.7 µg/mL.

What about the “Concentration … after different incubation time” value ([5]; binary system with 0.5% polymer 110, incubation 3 h) of the same compound?
Its value is 79.0 µg/mL.

And the “Concentration … after different incubation time” value ([5]; binary system with 0.5% polymer 110, incubation 6 h)?
The value was 77.6 µg/mL.

And the “Concentration of guest molecule in solution” value ([5]; binary: 0.5% 102H)?
Its value is 383.3 µg/mL.

What about the “Times that of the initial medium” value ([5]; binary: 0.5% 102H) of the same compound?
Its value is 3.0 times.

And the “Concentration of guest molecule in solution” value ([5]; binary: 0.5% 103E5)?
The value was 233.5 µg/mL.

And the “Times that of the initial medium” value ([5]; binary: 0.5% 103E5)?
Its value is 1.8 times.

With `O=c1c(O)c(-c2ccc(O)cc2)oc2cc(O)cc(O)c12` [Kaempferol, kaempferol] as the compound, how does the “solubility value given” value ([4]; no unit printed in the heading) read?
The value was “Kaempferol (520-18-3) derivatives-0.40”.

With `C=C1C[C@@]23CC[C@H]4[C@@](C)(CCC[C@@]4(C)C(=O)O[C@@H]4O[C@H](CO)[C@@H](O)[C@H](O)[C@H]4O)[C@@H]2CC[C@]1(O[C@@H]1O[C@H](CO)[C@@H](O)[C@H](O[C@@H]2O[C@H](CO)[C@@H](O)[C@H](O)[C@H]2O)[C@H]1O[C@@H]1O[C@H](CO)[C@@H](O)[C@H](O)[C@H]1O)C3` [Rebaudioside A] as the compound, how does the Intrinsic solubility [4] read?
Its Intrinsic solubility is “Intrinsic solubility: 288.8 mg/ml”.

With `C=C1C[C@@]23CC[C@H]4[C@@](C)(CCC[C@@]4(C)C(=O)O)[C@@H]2CC[C@]1(O[C@@H]1O[C@H](CO)[C@@H](O)[C@H](O[C@@H]2O[C@H](CO)[C@@H](O)[C@H](O)[C@H]2O)[C@H]1O[C@@H]1O[C@H](CO)[C@@H](O)[C@H](O)[C@H]1O)C3` [Rebaudioside B, rebaudioside B] as the compound, how does the Intrinsic solubility [4] read?
The Intrinsic solubility was “Intrinsic solubility: 7.98 mg/ml”.

With `O=C(CCc1ccc(O)cc1)c1c(O)cc(O)cc1O[C@@H]1O[C@H](CO)[C@@H](O)[C@H](O)[C@H]1O` [Phloridzin, 1-[2,4-dihydroxy-6-[(2S,3R,4S,5S,6R)-3,4,5-trihydroxy-6-(hydroxymethyl)oxo-2-yl]oxophenyl]-3-(4-hydroxyphenyl)propan-1-one] as the compound, how does the Sol [4, 6] read?
The Sol was 3.89 mg/mL.

With `CC1(C)[C@@H](O[C@H]2O[C@H](C(=O)O)[C@@H](O)[C@H](O)[C@H]2O[C@@H]2O[C@H](C(=O)O)[C@@H](O)[C@H](O)[C@H]2O)CC[C@]2(C)[C@H]3C(=O)C=C4[C@@H]5C[C@@](C)(C(=O)O)CC[C@]5(C)CC[C@@]4(C)[C@]3(C)CC[C@@H]12` [Glycyrrhizic acid, glycyrrhizic acid] as the compound, how does the Solubility ([4]; pH > 5.0) read?
The Solubility was “pH > 5.0: 159 mg/ml”.

Which Sol [4, 6] does the source give for `COc1ccc(CCC(=O)c2c(O)cc(O[C@@H]3O[C@H](CO)[C@@H](O)[C@H](O)[C@H]3O[C@@H]3O[C@@H](C)[C@H](O)[C@@H](O)[C@H]3O)cc2O)cc1O` [Neosperidin dihydrochalcone, neohesperidin dihydrochalcone] here?
Its Sol is 104.87 mg/mL.

With `O=C(CCc1ccc(O)cc1)c1c(O)cc(O)cc1O` [Phloretin, 3-(4-hydroxyphenyl)-1-(2,4,6-trihydroxyphenyl)propan-1-one] as the compound, how does the Sol [4, 6] read?
Its Sol is 3.07 mg/mL.

Which results are given for `O=C(CCc1ccc(O)c(O)c1)c1c(O)cc(O)c([C@@H]2O[C@H](CO)[C@@H](O)[C@H](O)[C@H]2O)c1O` [Aspalathin, 3-(3,4-dihydroxyphenyl)-1-{2,4,6-trihydroxy-3-[3,4,5-trihydroxy-6-(hydroxymethyl)oxo-2-yl]phenyl]propan-1-one]?
LogP [4, 6]: 0.83; Sol [4, 6]: 36.12 mg/mL

For `O=c1cc(-c2ccc(O)c(O)c2)oc2cc(O)cc(O)c12` [Luteolin], which “solubility value given” value ([4]; no unit printed in the heading) is on record?
The value was “Luteolin (CAS: 491-70-3) derivatives-0.40”.
